The results in this text go back to patent US8536215B2, “Pyrazole microbiocides” (Syngenta Crop Protection LLC, priority 2010, dated 2013).

Molecules are shown by their SMILES. A value given as a limit tells only on which side of the number the result lay.

Series [1] concerns Puccinia recondita. In words: Protective action against Puccinia recondita (brown rust) on wheat leaf segments. The note with it: foliar, 192 h, 0.02% active ingredient sprayed on wheat leaf segments, assessed 8 days after inoculation, read-out: preventive fungicidal activity (inhibition). It counts as in vivo. As to the method: Wheat leaf segments were placed on agar in multiwell plates (24-well format) and sprayed with test solutions (0.02% active ingredient). After drying, the leaf disks were inoculated with a spore suspension of the fungus. After appropriate incubation the activity of a compound was assessed 8 days after inoculation as preventive fungicidal activity.

In series [2] the test system is Erysiphe graminis f. sp. tritici. The series is described as follows: Action against Erysiphe graminis f. sp. tritici (wheat powdery mildew), wheat leaf segments, preventive. The format is in vivo. The conditions noted are these: Blumeria graminis, foliar, 168 h; 0.02% active ingredient sprayed on wheat leaf segments, assessed 7 days after inoculation; read-out: preventive fungicidal activity (inhibition). As to the method: Wheat leaf segments were placed on agar in multiwell plates (24-well format) and sprayed with test solutions (0.02% active ingredient). After drying, the leaf disks were inoculated with a spore suspension of the fungus. After appropriate incubation the activity of a compound was assessed 7 days after inoculation as preventive fungicidal activity.

The test system of another series is Pyrenophora teres. The series is described as follows: Action against Pyrenophora teres (net blotch) on barley leaf segments, preventive. The format is in vivo. The conditions noted are these: foliar, 96 h, 0.02% active ingredient sprayed on barley leaf segments, assessed 4 days after inoculation, read-out: preventive fungicidal activity (inhibition). The protocol: Barley leaf segments were placed on agar in multiwell plates (24-well format) and sprayed with test solutions (0.02% active ingredient). After drying, the leaf disks were inoculated with a spore suspension of the fungus. After appropriate incubation the activity of a compound was assessed 4 days after inoculation as preventive fungicidal activity.

The test system of series [3] is Puccinia recondita. In words: Curative action against Puccinia recondita (brown rust) on wheat leaf segments. The format is in vivo. The conditions noted are these: foliar, 0.02% active ingredient sprayed one day after inoculation of wheat leaf segments, assessed 8 days after inoculation, read-out: curative fungicidal activity (inhibition). The protocol:
Wheat leaf segments were placed on agar in multiwell plates (24-well format) and inoculated with a spore suspension of the fungus. One day after inoculation the leaf segments were sprayed with test solutions (0.02% active ingredient). After appropriate incubation the activity of a compound was assessed 8 days after inoculation as curative fungicidal activity.

The next series concerns Septoria tritici. The series is described as follows: Action against Septoria tritici - fungal growth assay. The format is cell-based. The note with it: Zymoseptoria tritici; 0.002% active ingredient, PDB broth, 24° C., photometric after 72 hrs. As to the method: Conidia of the fungus from cryogenic storage were directly mixed into nutrient broth (PDB potato dextrose broth). After placing a (DMSO) solution of the test compounds (0.002% active ingredient) into a microtiter plate (96-well format) the nutrient broth containing the fungal spores was added. The test plates were incubated at 24° C. and the inhibition of growth was determined photometrically after 72 hrs. The activity of a compound was expressed as fungal growth inhibition (0=no growth inhibition, ratings of 80% to 99% mean good to very good inhibition, 100%=complete inhibition).

Series [4] has as its system Mycosphaerella arachidis (Cercospora arachidicola [Anamorph]). The series is described as follows: Action against Mycosphaerella arachidis (early leaf spot of groundnut) - fungal growth assay. The conditions noted are these: 0.002% active ingredient, PDB broth, 24° C., photometric after 6-7 days. It counts as cell-based. The protocol:
Conidia of the fungus from cryogenic storage were directly mixed into nutrient broth (PDB potato dextrose broth). After placing a (DMSO) solution of the test compounds (0.002% active ingredient) into a microtiter plate (96-well format) the nutrient broth containing the fungal spores was added. The test plates were incubated at 24° C. and the inhibition of growth was measured photometrically after 6-7 days. The activity of a compound was expressed as fungal growth inhibition (0=no growth inhibition, ratings of 80% to 99% mean good to very good inhibition, 100%=complete inhibition).

A further series relates to Botrytis cinerea. In words: Action against Botrytis cinerea - fungal growth assay. It counts as cell-based. The note with it: 0.002% active ingredient, PDB broth, 24° C., photometric after 3-4 days. As to the method:
(§1) Conidia of the fungus from cryogenic storage was directly mixed into nutrient broth (PDB potato dextrose broth). After placing a (DMSO) solution of the test compounds (0.002% active ingredient) into a microtiter plate (96-well format) the nutrient broth containing the fungal spores was added. The test plates were incubated at 24° C. and the inhibition of growth was measured photometrically after 3-4 days. The activity of a compound was expressed as fungal growth inhibition (0=no growth inhibition, ratings of 80% to 99% mean good to very good inhibition, 100%=complete inhibition).

The subject of series [5] is Monographella nivalis (Anamorph: Fusarium nivale, Microdochium nivale). The series is described as follows: Action against Monographella nivalis (snow mould) - fungal growth assay. It counts as cell-based. The conditions noted are these: 0.002% active ingredient, PDB broth, 24° C., photometric after 72 hrs. The protocol: Conidia of the fungus from cryogenic storage were directly mixed into nutrient broth (PDB potato dextrose broth). After placing a DMSO-solution of the test compounds (0.002% active ingredient) into a microtiter plate (96-well format) the nutrient broth containing the fungal spores was added. The test plates were incubated at 24° C. and the inhibition of growth was measured photometrically after 72 hrs (0=no growth inhibition, ratings of 80% to 99% mean good to very good inhibition, 100%=complete inhibition).

In the next series the test system is Rhizoctonia Solani. In words: Action against Rhizoctonia solani - fungal growth assay. It counts as cell-based. The conditions noted are these: 0.002% active ingredient, PDB broth, 24° C., photometric after 3-4 days. The protocol:
as §1, with “Mycelial fragments of a newly grown liquid culture” for “Conidia”, “were” for “from cryogenic storage was”

What is called inhibition is the share of the control response that was lost under treatment. Broadly, the melting point is the temperature, or range, at which the solid turns liquid. `CON(C(=O)c1cn(C)nc1C(F)F)C(C)C1CCC(C)=CC1(C)C` (stereo not drawn) [Compound 1.081, 3-difluoromethyl-1-methyl-1H-pyrazole-4-carboxylic acid methoxy-[1-(2,2,4-trimethyl-cyclohex-3-enyl)-ethyl]-amide] had a melting point of 95 to 105 °C. Besides, the inhibition at 0.02 % strength in the series on Puccinia recondita [1] was at least 80%. Besides, the inhibition at 0.02 % strength in series [2] was at least 80%. In the series with Pyrenophora teres, the inhibition at 0.02 % strength is at least 80%. Further, the inhibition at 0.02 % strength in the series on Puccinia recondita [3] was at least 80%. Further, in the series with Septoria tritici, the inhibition at 0.002 % strength is at least 80%. This compound also yielded an inhibition at 0.002 % strength in [4] of at least 80%. The compound also showed an inhibition at 0.002 % strength with Botrytis cinerea of at least 80%. This compound came in with an inhibition at 0.002 % strength in series [5] of at least 80%. The same compound returned an inhibition at 0.002 % strength in the series with Rhizoctonia Solani of at least 80%.
In the series on Botrytis cinerea, `CON(C(=O)c1cn(C)nc1C(F)F)C(C)C1CCC(C)=CC1(C)C` (single isomer, unassigned) [Compound 1.081 Diastereomer A, 3-difluoromethyl-1-methyl-1H-pyrazole-4-carboxylic acid methoxy-[1-(2,2,4-trimethyl-cyclohex-3-enyl)-ethyl]-amide] showed an inhibition at 0.002 % strength of at least 80%.
With `CON(C(=O)c1cn(C)nc1C(F)F)C(C)C1CC=C(C)CC1` (stereo not drawn) [Compound 1.049], the inhibition at 0.02 % strength (in series [2]; with Pyrenophora teres) was at least 80% each time. The inhibition at 0.002 % strength (in the series with Septoria tritici; in series [4]; in the series with Botrytis cinerea; in [5]; in the series with Rhizoctonia Solani) was at least 80% throughout.
